# Results: patent publication US11433014B2, “Polyol polyrhamnosides, process for the preparation thereof, and cosmetic and/or pharmaceutical composition comprising same” (SOCIETE D'EXPLOITATION DE PRODUITS POUR LES INDUSTRIES …, priority 2017, dated 2022)
# Values joined by “and” are separate entries in the source; they are usually repeats but may differ in a detail not shown here. Identical values can stand only once.
# System: Normal human fibroblasts
# Test: Production of hyaluronic acid on human fibroblast cultures
# Assay type: cell-based
# Conditions: EGF 10 ng/ml (positive reference), 72-hour incubation
# Protocol: B)—Evaluation of the Moisturizing Effect of the Compositions According to the Invention—Measurement of the Production of Hyaluronic Acid on Human Fibroblast Cultures:
# Normal human fibroblasts are seeded and cultured in 96-well plates in 10% FCS (fetal calf serum) culture medium, at 37° C. in a humid atmosphere containing 5% CO2. […] Each condition is performed in n=4. At the end of a 72-hour incubation, the amount of hyaluronic acid excreted into the culture supernatant is measured using a specific assay kit (Hyaluronan Duo Set Assay Development Kit—Biotechne); and the amount of protein present in the cell lawns is measured using the BC Assay kit (Interchim). The amount of hyaluronic acid assayed is then expressed relative to the amount of protein per well. Means and standard deviations are calculated per condition and the level of hyaluronic acid production is evaluated by comparing the test conditions with the control condition (untreated cells).
substance,measurement,setting,value
"EGF: epidermal growth factor, the positive reference for the model","Amount of hyaluronic acid produced, Mean","culture supernatant, n=4",32.29 ng/μg protein and 25.28 ng/μg protein
same,"Amount of hyaluronic acid produced, Difference relative to the control",vs untreated cells,164%
